Data on one compound can be found in US8647651B2, “Synergistic mixtures of C6- to C12-alkanediols and tropolone (derivatives)” (priority 2005, dated 2014).

The assay relates to Aspergillus niger ATCC 16404. Nature of the assay: Testing for adequate preservation (European Pharmacopoeia) of O/W emulsion, Example 1. The settings on record: for Aspergillus niger germ count: O/W emulsion pH 5.5, 0.5% product A, 0.01% product B, 0.31% product C. Format: cell-based. The protocol:
Testing for adequate preservation was carried out in accordance with the European Pharmacopoeia. Testing thus comprises contamination of the formulation, if possible in its final condition, with a prescribed inoculum of suitable microorganisms, storage of the inoculated formulation at a certain temperature, removal of samples from the container at certain intervals of time and determination of the number of microorganisms in the samples removed in this way. The preserving properties are adequate if, under the conditions of the test, a clear reduction or, where appropriate, no increase in the germ count results in the inoculated formulations after the prescribed times at the prescribed temperatures. Experimental details of the test procedure are described in the European Pharmacopoeia (ISBN 3-7692-2768-9; Supplement 2001 to the 3rd Edition, page 421-422, chapter 5.1.3). The following microorganism strains were used for the tests for adequate preservation: • A: Escherichia coli ATCC 8739 • B: Pseudomonas aeruginosa ATCC 9027 • C: Staphylococcus aureus ATCC 6538 • D: Candida albicans ATCC 10231 • E: Aspergillus niger ATCC 16404 The initial germ count (CFU/g; “0 value”) was in the range of from 250,000 to 320,000 in the various test series. Formulation: For the tests for adequate preservation, a defined amount of the active compound combination according to the invention (product C) was incorporated into an O/W emulsion. For comparison purposes, the comparison products (product A and B) were incorporated into separate O/W emulsions. [table] The results of the preservative stress tests for Aspergillus niger for the active compound combinations investigated, comprising the mixture according to the invention (product C) or the comparison systems (products A and B) are compared in Table 2. The synergistic effect of the mixture according to the invention (product C) manifests itself here above all in the residual germ counts for Aspergillus niger which remain after 28 days.

Regarding `O=c1cccccc1O` [product B, 2,4,6-cycloheptatrien-1-one, 2-hydroxy], the “reduction in the number of colony-forming units (CFU) of Aspergillus niger” value (28 days, product A 0.5 wt. %) was “no such significant reduction”. For the same compound, the “Aspergillus niger germ count” value runs as follows: (day 0 (initial germ count)) 280,000 CFU/ml; (day 2) 72,000 CFU/ml; (day 7) 2,000 CFU/ml; (day 14) 4,800 CFU/ml; (day 28) 100 CFU/ml.
